In patent publication US6452008B2, “Pyridone derivatives and process for preparing the same” (Sumitomo Pharmaceuticals Company, Limited, priority 1998, dated 2002):

Target: T1, ACAT (Rattus norvegicus, UniProt O70536)
T1 construct: The rat peritoneal-derived macrophage was prepared; endogenous in cells; host or cells: rat peritoneal macrophages (primary)
T1 sequence (O70536 1-545): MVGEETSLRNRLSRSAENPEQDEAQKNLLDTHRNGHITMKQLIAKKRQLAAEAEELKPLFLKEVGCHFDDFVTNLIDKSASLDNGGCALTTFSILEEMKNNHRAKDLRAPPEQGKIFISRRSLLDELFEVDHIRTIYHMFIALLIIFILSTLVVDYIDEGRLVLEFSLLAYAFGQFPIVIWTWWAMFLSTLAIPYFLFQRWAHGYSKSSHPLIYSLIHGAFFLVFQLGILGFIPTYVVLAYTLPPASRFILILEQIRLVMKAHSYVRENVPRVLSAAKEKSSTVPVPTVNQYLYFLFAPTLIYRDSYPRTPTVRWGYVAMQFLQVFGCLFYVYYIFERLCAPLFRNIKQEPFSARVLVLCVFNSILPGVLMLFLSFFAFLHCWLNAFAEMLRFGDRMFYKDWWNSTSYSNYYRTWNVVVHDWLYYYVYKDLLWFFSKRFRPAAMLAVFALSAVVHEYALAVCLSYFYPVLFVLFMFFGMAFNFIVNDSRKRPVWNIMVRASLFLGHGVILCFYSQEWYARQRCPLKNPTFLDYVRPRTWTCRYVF
Assay: Assay of ACAT inhibitory activity in the macrophage derived from rat peritoneal
Assay type: cell-based
Conditions: [9,10-3H]oleic acid, exogenous cholesterol in liposome
Method: 2. Assay of ACAT inhibitory activity in the macrophage derived from rat peritoneal:
The rat peritoneal-derived macrophage was prepared according to the method disclosed in the literature: Biochimica et Biophysica Acta, 1126, 73-80, 1992. The ACAT activity was determined by a modified method of the method disclosed in the above literature: Biochimica et Biophysica Acta, 1126, 73-80, 1992, i.e., using radioactive [9,10-^3H]oleic acid and exogenous cholesterol contained in the liposome which was re-constituted according to the method disclosed in the literature: Biochimica et Biophysica Acta, 1213, 127-134, 1994, and calculated from the radioactivity of the labeled cholesterolyl oleate.

CCCCn1cc(C)c(-c2cc(C#CCN(CC)CC)ccc2OC)c(NC(=O)Nc2c(C(C)C)cccc2C(C)C)c1=O [Example 18, N-[1-butyl-2-oxo-4-[5-{3-(diethylamino)-1-propynyl}-2-methoxy]phenyl-5-methyl-1,2-dihydropyridin-3-yl]-N′-(2,6-diisopropylphenyl) urea]
IC50: 16 nM
